Data set [1] deals with α7^EM nAChR (Homo sapiens, UniProt P36544). The data set is described as follows: cell-based. Format: cell-based.
The target of data set [2] is α7^EM nAChR S56A (Homo sapiens, UniProt P36544, S56A, form not given). Format: cell-based. The settings on record: read-out: IC50 at α7^EM nAChR mutant S56A.
For data set [3], the target named is α7^EM nAChR Q139E (Homo sapiens, UniProt P36544, Q139E, form not given). Format: cell-based. To be noted: read-out: IC50 at α7^EM nAChR mutant Q139E.
Chain of α7^EM nAChR Q139E (P36544 23-502 Q139E, form open): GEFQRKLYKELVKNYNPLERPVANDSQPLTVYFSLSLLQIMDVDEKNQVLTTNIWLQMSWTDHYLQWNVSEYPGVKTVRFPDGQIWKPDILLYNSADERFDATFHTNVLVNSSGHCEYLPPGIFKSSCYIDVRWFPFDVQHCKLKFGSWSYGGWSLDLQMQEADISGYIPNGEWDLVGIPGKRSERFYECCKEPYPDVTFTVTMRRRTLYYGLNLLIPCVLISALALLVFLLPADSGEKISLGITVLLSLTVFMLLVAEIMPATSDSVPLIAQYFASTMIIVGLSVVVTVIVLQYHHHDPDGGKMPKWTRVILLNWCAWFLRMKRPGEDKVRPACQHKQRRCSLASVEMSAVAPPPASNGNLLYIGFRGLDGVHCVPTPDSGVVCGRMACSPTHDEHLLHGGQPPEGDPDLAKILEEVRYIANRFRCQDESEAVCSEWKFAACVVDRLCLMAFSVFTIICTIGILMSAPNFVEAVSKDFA
The target of data set [4] is α7^EM nAChR E184Q (Homo sapiens, UniProt P36544, E184Q, form not given). Format: cell-based. To be noted: read-out: IC50 at α7^EM nAChR mutant E184Q.
Chain of α7^EM nAChR E184Q (P36544 23-502 E184Q, form open): as the sequence (P36544 23-502 Q139E, form open) above, with E117Q, E162Q counted along it
Data set [5] deals with α7^EM nAChR R208A (Homo sapiens, UniProt P36544, R208A, form not given). Format: cell-based. To be noted: read-out: IC50 at α7^EM nAChR mutant R208A.
Chain of α7^EM nAChR R208A (P36544 23-502 R208A, form open): as the sequence (P36544 23-502 Q139E, form open) above, with E117Q, R186A counted along it
In data set [6] the target is hα7 nAChR (Homo sapiens, UniProt P36544). The data set is described as follows: cell-based.
Chain of hα7 nAChR (P36544 23-502): as the sequence (P36544 23-502 Q139E, form open) above, with E117Q counted along it
A short description of data set [7]: in vitro. To be noted: human, serum.

The values below come from publication PMC13366377 (Acta Pharmaceutica Sinica. B, 2025).

Positions of bridges follow the written chain, without caps; N, C: chain ends. Non-standard residues stand in square brackets, D forms with d. Residues, ends and D or L forms follow the SMILES beside them. pGlu = O=C1CC[C@@H](C(=O)O)N1

Chain of α7^EM nAChR (P36544 23-233 limits assumed): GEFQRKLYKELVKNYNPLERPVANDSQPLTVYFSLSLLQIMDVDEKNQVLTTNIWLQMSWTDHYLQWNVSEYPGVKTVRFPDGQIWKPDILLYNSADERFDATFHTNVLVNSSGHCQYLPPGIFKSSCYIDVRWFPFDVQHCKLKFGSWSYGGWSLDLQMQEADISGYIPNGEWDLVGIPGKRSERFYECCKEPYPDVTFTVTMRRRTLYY
Chain of α7^EM nAChR S56A (P36544 23-502 S56A, form open): as the sequence (P36544 23-502 Q139E, form open) above, with S34A, E117Q counted along it

As a reminder, the IC50 is the point on the concentration scale where inhibition reaches its midpoint. Take `N=C(N)NCCC[C@@H]1NC(=O)[C@@H](NC(=O)CNC(=O)[C@@H]2CCCN2C(=O)[C@@H](N)CCC(N)=O)CSSC[C@@H](C(N)=O)NC(=O)[C@H](Cc2c[nH]c3ccccc23)NC(=O)[C@H](CCCNC(=N)N)NC(=O)[C@H](CCCNC(=N)N)NC(=O)[C@H](Cc2c[nH]c3ccccc23)NC(=O)[C@H](Cc2c[nH]c3ccccc23)NC1=O` [[S8R]SS1] (H-QPGCRWWRRWC-NH2; disulfide 4-11): the IC50 turned out to be 659 ± 92.9 nM in data set [1]; 234 ± 36.1 nM in data set [2]; 852 ± 66.3 nM in data set [3]; 555 ± 99.9 nM in data set [4]; 1930 ± 196 nM in data set [5].
Turning to `N=C(N)NCCC[C@@H]1NC(=O)[C@@H](NC(=O)CNC(=O)[C@@H]2CCCN2C(=O)[C@@H](N)CCC(N)=O)CSSC[C@@H](C(N)=O)NC(=O)[C@H](Cc2c[nH]c3ccccc23)NC(=O)[C@H](CCCNC(=N)N)NC(=O)[C@H](CCCNC(=N)N)NC(=O)[C@H](Cc2c[nH]c3ccccc23)NC(=O)[C@H](CCCNC(=N)N)NC1=O` [[W6R, S8R]SS1] (H-QPGCRRWRRWC-NH2; disulfide 4-11), the “potency of [S8R]SS1 analogues at hα7 nAChR relative to [S8R]SS1 (in words)” value in data set [6] (n = 8-10) is reported as “maintained potency”.
Regarding `N=C(N)NCCC[C@@H]1NC(=O)[C@@H](NC(=O)CNC(=O)[C@@H]2CCCN2C(=O)[C@@H](N)CCC(N)=O)CSSC[C@@H](C(N)=O)NC(=O)[C@H](Cc2c[nH]c3ccccc23)NC(=O)[C@H](CCCNC(=N)N)NC(=O)[C@H](CO)NC(=O)[C@H](CCCNC(=N)N)NC(=O)[C@H](Cc2c[nH]c3ccccc23)NC1=O` [[W7R]SS1] (H-QPGCRWRSRWC-NH2; disulfide 4-11), the “potency at hα7 nAChR relative to parent peptide (in words)” value in data set [6] is recorded as “no significant differences”.
`N=C(N)NCCC[C@@H]1NC(=O)[C@@H](NC(=O)CNC(=O)[C@@H]2CCCN2C(=O)[C@@H]2CCC(=O)N2)CSSC[C@@H](C(N)=O)NC(=O)[C@H](Cc2c[nH]c3ccccc23)NC(=O)[C@H](CCCNC(=N)N)NC(=O)[C@H](CCCNC(=N)N)NC(=O)[C@H](Cc2c[nH]c3ccccc23)NC(=O)[C@H](Cc2c[nH]c3ccccc23)NC1=O` [[Q1Pyr, S8R]SS1] ([pGlu]PGCRWWRRWC-NH2; disulfide 4-11) had an IC50 in data set [1] of 1390 ± 260 nM.
On to `N=C(N)NCCC[C@@H]1NC(=O)[C@@H](NC(=O)CNC(=O)[C@H](CCCNC(=N)N)NC(=O)[C@@H](N)CCC(N)=O)CSSC[C@@H](C(N)=O)NC(=O)[C@H](Cc2c[nH]c3ccccc23)NC(=O)[C@H](CCCNC(=N)N)NC(=O)[C@H](CO)NC(=O)[C@H](Cc2c[nH]c3ccccc23)NC(=O)[C@H](Cc2c[nH]c3ccccc23)NC1=O` [[P2R]SS1] (H-QRGCRWWSRWC-NH2; disulfide 4-11), for which the “potency at hα7 nAChR relative to parent peptide (in words)” value in data set [6] was “no significant differences”.
In general, fraction remaining refers to the share of the starting amount still present when the sample was taken. A lower fraction remaining goes with a greater loss. In the case of `N=C(N)NCCC[C@@H]1NC(=O)[C@@H](NC(=O)CN)CSSC[C@@H](C(N)=O)NC(=O)[C@H](Cc2c[nH]c3ccccc23)NC(=O)[C@H](CCCNC(=N)N)NC(=O)[C@H](CCCNC(=N)N)NC(=O)[C@H](Cc2c[nH]c3ccccc23)NC(=O)[C@H](Cc2c[nH]c3ccccc23)NC1=O` [[ΔQP, S8R]SS1] (H-GCRWWRRWC-NH2; disulfide 2-9), in data set [6], half-maximal inhibition (IC50) required 49.2 nM and the “increase in potency compared to SS1” value is reported as about 29 fold. Also, the share remaining at 24 h in data set [7] was 14%.
With `N=C(N)NCCC[C@@H]1NC(=O)[C@@H](NC(=O)CNC(=O)[C@@H]2CCCN2C(=O)[C@@H](N)CCCNC(=N)N)CSSC[C@@H](C(N)=O)NC(=O)[C@H](Cc2c[nH]c3ccccc23)NC(=O)[C@H](CCCNC(=N)N)NC(=O)[C@H](CCCNC(=N)N)NC(=O)[C@H](Cc2c[nH]c3ccccc23)NC(=O)[C@H](Cc2c[nH]c3ccccc23)NC1=O` [[Q1R, S8R]SS1] (H-RPGCRWWRRWC-NH2; disulfide 4-11), in data set [1], the IC50 was found to be 136 ± 27.8 nM and the “increase in potency versus [S8R]SS1 at α7^EM nAChR” value came to 4.8 fold.
Regarding `N=C(N)NCCC[C@@H]1NC(=O)[C@@H](NC(=O)CNC(=O)[C@@H]2CCCN2C(=O)[C@@H](N)CCC(N)=O)CSSC[C@@H](C(N)=O)NC(=O)[C@H](Cc2c[nH]c3ccccc23)NC(=O)[C@H](CCCNC(=N)N)NC(=O)[C@H](CO)NC(=O)[C@H](Cc2c[nH]c3ccccc23)NC(=O)[C@H](CCCNC(=N)N)NC1=O` [[W6R]SS1] (H-QPGCRRWSRWC-NH2; disulfide 4-11), the “potency at hα7 nAChR relative to parent peptide (in words)” value in data set [6] is “completely lost potency”.
The same measure, in the same setting: under `N=C(N)NCCC[C@@H]1NC(=O)[C@@H](NC(=O)CNC(=O)[C@@H]2CCCN2C(=O)[C@@H](N)CCCNC(=N)N)CSSC[C@@H](C(N)=O)NC(=O)[C@H](Cc2c[nH]c3ccccc23)NC(=O)[C@H](CCCNC(=N)N)NC(=O)[C@H](CO)NC(=O)[C@H](Cc2c[nH]c3ccccc23)NC(=O)[C@H](Cc2c[nH]c3ccccc23)NC1=O` [[Q1R]SS1] (H-RPGCRWWSRWC-NH2; disulfide 4-11) stands “no significant differences”; under `N=C(N)NCCC[C@@H]1NC(=O)[C@H](CO)NC(=O)[C@H](Cc2c[nH]c3ccccc23)NC(=O)[C@H](Cc2c[nH]c3ccccc23)NC(=O)[C@H](CCCNC(=N)N)NC(=O)[C@@H](NC(=O)[C@H](CCCNC(=N)N)NC(=O)[C@@H]2CCCN2C(=O)[C@@H](N)CCC(N)=O)CSSC[C@@H](C(N)=O)NC(=O)[C@H](Cc2c[nH]c3ccccc23)NC1=O` [[G3R]SS1] (H-QPRCRWWSRWC-NH2; disulfide 4-11), “no significant differences”.
With `N=C(N)NCCC[C@@H]1NC(=O)[C@@H](NC(=O)CNC(=O)[C@@H]2CCCN2C(=O)[C@@H](N)CCC(=O)O)CSSC[C@@H](C(N)=O)NC(=O)[C@H](Cc2c[nH]c3ccccc23)NC(=O)[C@H](CCCNC(=N)N)NC(=O)[C@H](CCCNC(=N)N)NC(=O)[C@H](Cc2c[nH]c3ccccc23)NC(=O)[C@H](Cc2c[nH]c3ccccc23)NC1=O` [[Q1E, S8R]SS1] (H-EPGCRWWRRWC-NH2; disulfide 4-11), in data set [1], half-maximal inhibition (IC50) was put at 364 ± 103 nM and the “increase in potency versus [S8R]SS1 at α7^EM nAChR” value came out at 1.8 fold.
